This is an account of results in PubChem BioAssay AID1996.

Molecules are shown by their SMILES. In brackets after ≈: the same amount, converted by molar mass.

For the data set the following is noted: buffer; pH 7.4; 200.0 µM.
As to `CCn1c(CNC(=O)c2ccc(F)cc2)cc2ccccc21`, the kinetic solubility (in general, solubility judged after dilution from a stock solution rather than from solid) was determined as 0.0015 mg/mL (≈ 5.06 µM).
`COc1cccc(C(=O)N2CCN=C2SC)c1` returned a solubility (kinetic) of 0.0351 mg/mL (≈ 140 µM).
Compound `Cc1cc(C)c(NC(=O)c2cccc(NC(=O)c3ccco3)c2)c(C)c1` yielded a kinetic solubility of 0.0443 mg/mL (≈ 127 µM).
As to `O=C(C1=C(O)C(=O)N(CCOCCO)C1c1ccccn1)c1cccs1` (centres undefined), the kinetic solubility was above 0.0562 mg/mL.
Under `CCc1ccc(OC(=O)c2cncc(Br)c2)cc1` stands 0.004 mg/mL (≈ 13.1 µM).
In turn, `Cn1c(SCC(=O)Nc2ccccc2)nc2ccccc2c1=O` registered a kinetic solubility of 0.0032 mg/mL (≈ 9.83 µM).
To `Cc1ccc(S(=O)(=O)N2CCCC(C)C2)cc1` (centres undefined) belongs 0.0213 mg/mL (≈ 84.1 µM); to `CC(C)(C)C1CCc2c(sc3nc(SCC(=O)O)nc(N)c23)C1` (centres undefined), 0.0394 mg/mL (≈ 112 µM).
`O=C(Nc1ccc(CN2CCOCC2)cc1)c1ccc(Br)cc1` returned a kinetic solubility of 0.0006 mg/mL (≈ 1.6 µM).
The compound `O=C(CNC(=O)c1ccccc1)NCC(=O)OCC(=O)c1ccccc1Cl` displayed a solubility (kinetic) of 0.0501 mg/mL (≈ 129 µM).
As to `Cc1ccc2oc(=O)n(CC(=O)OCCC(C)C)c2c1`, the kinetic solubility amounted to 0.016 mg/mL (≈ 57.7 µM).
Consider `Cc1ccc(C(C)NC(=O)c2c(-c3ccccc3)noc2C)cc1C` (centres undefined), for which the solubility (kinetic) was determined as 0.0024 mg/mL (≈ 7.18 µM).
`O=C(COC(=O)Cc1cccc(F)c1)NC(=O)NC1CCCCC1`: the solubility (kinetic) was above 0.0505 mg/mL.
Under `CCOc1ccc2nc(NC(=O)CN3CCN(CC)CC3)sc2c1` stands 0.0476 mg/mL (≈ 137 µM); under `Clc1ccc(NCc2cccnc2)c(Cl)c1`, 0.0291 mg/mL (≈ 115 µM).
`O=C(NCCN1CCCCC1)c1ccc(/C=N/O)nc1` gave a kinetic solubility of 0.0407 mg/mL (≈ 147 µM).
Under `C/C=C/C(=O)N(CC)c1ccccc1C` stands 0.0177 mg/mL (≈ 87.1 µM).
Compound `O=C(NC(=S)NC1CCCCC1)c1ccc(Cl)cc1` returned a kinetic solubility below 0.0003 mg/mL.
On to `COc1cc(SC)ccc1C(=O)OCC(=O)NC1CCCCC1`, for which the solubility (kinetic) came out at 0.0022 mg/mL (≈ 6.52 µM).
Compound `Cc1cc(NC(=O)c2ccc(F)cc2)no1` displayed a solubility (kinetic) of 0.0207 mg/mL (≈ 94 µM).
To `CN(C)S(=O)(=O)c1cccc(NC(=O)NCCCl)c1` belongs above 0.0459 mg/mL.
On to `Cl.c1ccc2c3c([nH]c2c1)CCNC3`, for which the kinetic solubility is above 0.0313 mg/mL.
Regarding `CN(c1ccc(O)cc1)S(=O)(=O)c1ccc2ccccc2c1`, the solubility (kinetic) is above 0.047 mg/mL.
On to `Cc1c(OCC(=O)N(C)C)ccc2c(-c3ccccc3)cc(=O)oc12`, for which the solubility (kinetic) stood at 0.0136 mg/mL (≈ 40.3 µM).
In turn, `COC(=O)c1[nH]c2cc(OC)ccc2c1N=CN(C)C` gave a kinetic solubility of 0.0384 mg/mL (≈ 139 µM).
`O=C1Nc2ccccc2O/C1=C\c1ccccc1` came in with a solubility (kinetic) of 0.0012 mg/mL (≈ 5.06 µM).
Regarding `COc1ccccc1OCC(O)CNCc1ccc2c(c1)OCO2` (centres undefined), the solubility (kinetic) stood at 0.0474 mg/mL (≈ 143 µM).
With `Cc1ccccc1C(=O)NCCCn1ccnc1`, the kinetic solubility is above 0.0365 mg/mL.
`Cn1ccnc1SCC(=O)c1cccc(C(F)(F)F)c1` gave a kinetic solubility above 0.045 mg/mL.
Regarding `COc1ccc(NC(=O)Cn2c(=O)oc3ccccc32)cc1`, the solubility (kinetic) came to 0.035 mg/mL (≈ 117 µM).
For `NC(=O)c1ccc(N2CCNC(=O)C2)c([N+](=O)[O-])c1`, the solubility (kinetic) was above 0.0396 mg/mL.
As to `CC1(C)CC(=O)N(c2cc(Cl)ccc2Cl)C(=O)C1`, the solubility (kinetic) was 0.0147 mg/mL (≈ 51.4 µM).
As to `Cc1ccc(NS(=O)(=O)Cc2ccccc2)cc1Cl`, the solubility (kinetic) was 0.0018 mg/mL (≈ 6.09 µM).
Under `O=C(N/N=C\c1ccc(O)c([N+](=O)[O-])c1)C1COc2ccccc2O1` (centres undefined) stands above 0.0515 mg/mL; under `Cn1c(/C(C#N)=C(\O)c2ccc([N+](=O)[O-])cc2)nc2ccccc21`, below 0.0002 mg/mL; under `CNc1nc2cccnc2s1`, above 0.0248 mg/mL.
The compound `CCCCn1c(SCC(=O)NC2CC2)nc2ccccc2c1=O` gave a solubility (kinetic) of 0.0026 mg/mL (≈ 7.84 µM).
Compound `C=CCOc1ccc(C(=O)n2cc(C(=O)OC)c3ccccc32)cc1` returned a kinetic solubility below 0.0007 mg/mL.
Regarding `COc1ccc(/C=C/C(=O)OCC(=O)NC2CCCCCC2)cc1OC`, the kinetic solubility came to 0.0071 mg/mL (≈ 19.6 µM).
`COc1cc2[nH]c(Cl)c([N+](=O)[O-])c2cc1OC`: the solubility (kinetic) is above 0.0385 mg/mL.
To `O=C(COC(=O)CCc1ccc(S(=O)(=O)N2CCOCC2)cc1)Nc1ccccc1[N+](=O)[O-]` belongs 0.0168 mg/mL (≈ 35.2 µM); to `Cc1ccc(CN2CC(C(=O)Nc3cccc(C)n3)CC2=O)cc1` (centres undefined), above 0.0485 mg/mL.
`N#CCn1c(Cc2ccccc2)nc2ccccc2c1=O` showed a kinetic solubility above 0.0413 mg/mL.
Under `CCNC(=S)NCc1ccc(OC)c(OC)c1` stands above 0.0382 mg/mL; under `Cc1ccc(NC(=O)CCNC(=O)c2ccc(Cl)cc2)nc1`, 0.0168 mg/mL (≈ 52.9 µM); under `CC1CCCN(C(=O)CCCC(=O)N2CCCC(C)C2)C1` (centres undefined), above 0.0442 mg/mL.
The compound `O=C(c1cc(COc2ccc(F)cc2F)on1)N1CCSCC1` had a kinetic solubility of 0.0358 mg/mL (≈ 105 µM).
To `N#C/C(=C\c1c[nH]c2ccc(Br)cc12)c1ccccn1` belongs 0.0008 mg/mL (≈ 2.47 µM); to `Cc1ccccc1OCC(=O)OCC(=O)N1CCc2ccccc21`, 0.0018 mg/mL (≈ 5.53 µM).
Take `COc1cccc(-c2cc(C(=O)NCc3ccco3)c3ccccc3n2)c1`: the kinetic solubility came out at 0.0116 mg/mL (≈ 32.4 µM).
Regarding `Cc1c(/C=N/O)sc2ccccc12`, the kinetic solubility was found to be 0.0108 mg/mL (≈ 56.5 µM).
With `COc1cc(Cl)c(C)cc1Nc1ncccn1`, the kinetic solubility stood at 0.0224 mg/mL (≈ 89.7 µM).
To `O=C(NC1CCN(C(=O)NCc2ccccc2)CC1)c1ccccc1` belongs 0.0062 mg/mL (≈ 18.4 µM).
To `O=C(Nc1ccccc1Cl)C1C(c2ccccc2)C1(Cl)Cl` (centres undefined) belongs below 0.0007 mg/mL; to `Cc1ccccc1OCC(O)CNC1CCCC1.Cl` (centres undefined), 0.0382 mg/mL.
Consider `O=C1CC(C(=O)N2CCN(c3ccccc3)CC2)CN1Cc1ccccc1` (centres undefined), for which the solubility (kinetic) is above 0.0545 mg/mL.
`COc1ccc(NC(=O)Cn2cc(C(=O)C3CC3)c3ccccc32)cc1` yielded a kinetic solubility of 0.0005 mg/mL (≈ 1.44 µM).
Under `CC(C)C(=O)Nc1cc2c3c(c1)CCC(=O)N3CCC2` stands above 0.0409 mg/mL; under `O=C(O)/C=C/C(=O)NCCc1ccc(Cl)cc1`, above 0.0381 mg/mL.
Take `CCN(CC)c1ccc(N=Cc2c(O)[nH]c(=O)[nH]c2=O)cc1`: the solubility (kinetic) stood at 0.0058 mg/mL (≈ 19.2 µM).
In turn, `O=C(Nc1ccccc1)C1CC(=O)N(Cc2ccccc2)C1` (centres undefined) registered a kinetic solubility above 0.0442 mg/mL.
The compound `O=C(c1ccccc1)N1CCN(S(=O)(=O)c2cccs2)CC1` displayed a solubility (kinetic) above 0.0505 mg/mL.
In turn, `CN(c1ccccc1)c1cc(Br)nc(Br)c1` displayed a solubility (kinetic) of 0.0004 mg/mL (≈ 1.17 µM).
`COc1ccc(NC(=O)CCc2ccc(OC)c(OC)c2)cn1` yielded a solubility (kinetic) above 0.0475 mg/mL.
Under `CCc1nc(C)cn1S(=O)(=O)c1ccc(Br)cc1` stands above 0.0494 mg/mL.
`COC(=O)CSc1nc(Cc2ccccc2)nc2ccccc12` registered a kinetic solubility of 0.0107 mg/mL (≈ 33 µM).
Regarding `COc1ccccc1/C=C/CN1CCCCC1`, the kinetic solubility came to 0.0258 mg/mL (≈ 112 µM).
The compound `c1ccc2c(NCCc3c[nH]c4ccccc34)c3ccccc3nc2c1` displayed a solubility (kinetic) above 0.0506 mg/mL.
Turning to `Cc1cc(-c2nc(-c3ccncc3)no2)ccc1[N+](=O)[O-]`, the kinetic solubility was 0.0018 mg/mL (≈ 6.38 µM).
To `Cc1[nH]c(=S)c(C#N)c(C)c1Cc1ccc(Cl)cc1Cl` belongs 0.0022 mg/mL (≈ 6.81 µM); to `NS(=O)(=O)c1cccc(C(=O)OCC(=O)NC2CCCc3ccccc32)c1` (centres undefined), 0.0216 mg/mL (≈ 55.6 µM); to `CCn1c(=O)c2sccc2n(Cc2cccc(C)c2)c1=O`, 0.009 mg/mL (≈ 30 µM).
Regarding `CN(C(=O)c1ccncc1)C1CCCN(Cc2ccccc2F)C1` (centres undefined), the kinetic solubility is above 0.0491 mg/mL.
For `Cc1onc(-c2ccccc2)c1-c1nc2cc(Cl)ccc2c(=O)o1`, the kinetic solubility worked out at 0.0037 mg/mL (≈ 10.9 µM).
For the compound `Cc1ccc(CCC(=O)Nc2ccc(Br)cc2)o1`, the solubility (kinetic) worked out at 0.0042 mg/mL (≈ 13.6 µM).
`CSc1ncccc1C(=O)OCc1c(F)cccc1Cl` showed a kinetic solubility of 0.0011 mg/mL (≈ 3.53 µM).
To `O=C(Nc1ccc(C(=O)c2ccc(C(=O)O)c(C(=O)O)c2)cc1)c1ccccc1` belongs 0.0574 mg/mL (≈ 147 µM).
`COc1ccccc1NS(=O)(=O)c1cccc(NS(=O)(=O)c2cc(C(=O)O)ccc2OC)c1` yielded a kinetic solubility above 0.0739 mg/mL.
With `Cc1nc(NC(=O)c2c(-c3ccccc3Cl)noc2C)sc1C`, the solubility (kinetic) came to 0.013 mg/mL (≈ 37.4 µM).
To `O=C(Nc1cccc(/C=C/c2ccccn2)c1)c1cc(Cl)ccn1` belongs 0.0021 mg/mL (≈ 6.25 µM); to `Cc1noc(C(=O)NCC2CCCO2)c1Cl` (centres undefined), above 0.0367 mg/mL; to `COc1ccccc1NC(=O)COC(=O)c1ccc(S(=O)(=O)N2CCCCCC2)cc1`, 0.0026 mg/mL (≈ 5.82 µM).
Compound `Cc1ccc2nsnc2c1NC(=O)c1ccc([N+](=O)[O-])o1` had a solubility (kinetic) above 0.0456 mg/mL.
Under `COc1cc(N)c(Cl)cc1C(=O)OCC(=O)N1c2ccccc2NC(=O)C1(C)C` stands 0.0055 mg/mL (≈ 13.2 µM); under `COc1ccc(COC(=O)CN2C(=O)NC3(CC(C)CC(C)(C)C3)C2=O)cc1F` (centres undefined), 0.0051 mg/mL (≈ 12.5 µM); under `O=C(Nc1ccc(Cl)c(C(F)(F)F)c1)c1ccncc1`, 0.0387 mg/mL (≈ 129 µM).
As for `O=C(CN1CCOCC1)NCc1ccccc1Cl`, the kinetic solubility is above 0.0403 mg/mL.
Compound `Cn1c(SCC(=O)O)nc2sc3c(c2c1=O)CCC3` registered a solubility (kinetic) above 0.0445 mg/mL.
In turn, `CN(C)c1nc2c(N)ncnc2n1[C@H]1O[C@@H](CO)[C@H](O)[C@@H]1O` had a solubility (kinetic) above 0.0465 mg/mL.
Regarding `COCCN(C(=S)Nc1c(C)cccc1C)C(C)c1cccs1` (centres undefined), the solubility (kinetic) was 0.0161 mg/mL (≈ 46.2 µM).
To `CC(NC(=O)c1ccc(S(=O)(=O)C(F)F)cc1)c1ccccc1` (centres undefined) belongs above 0.0509 mg/mL.
For the compound `Cc1ccc(NC(=O)CN(C)CCOc2ccccc2)c([N+](=O)[O-])c1`, the solubility (kinetic) was below 0.0002 mg/mL.
Under `CC(=O)c1cc2c(cc1NC(=O)CN(C)S(=O)(=O)c1cccs1)OCO2` stands 0.0064 mg/mL (≈ 16.1 µM); under `CC1CCCN(C(=O)CSc2nnc(-c3ccncc3)n2C)C1` (centres undefined), above 0.0497 mg/mL; under `O=C(CSc1nc2ccccc2s1)NCC1CCCO1` (centres undefined), above 0.0463 mg/mL.
On to `CC1SC2(NC1=O)C1CC3CC(C1)CC2C3` (centres undefined), for which the kinetic solubility turned out to be 0.0034 mg/mL (≈ 14.3 µM).
Turning to `CC1CN(/C=C/C=O)C(C)CC1OC(=O)c1ccccc1` (centres undefined), the kinetic solubility is above 0.0431 mg/mL.
In the case of `Cn1ccnc1Sc1ccc(C(N)=O)cc1[N+](=O)[O-]`, the solubility (kinetic) came to 0.0387 mg/mL (≈ 139 µM).
In turn, `Cc1ccc(N=C2NC(=O)/C(=C/c3cccn3C)S2)c(C)c1` showed a solubility (kinetic) of 0.0012 mg/mL (≈ 3.85 µM).
On to `CCn1cc(C(=O)NCc2ccccc2F)c(=O)c2ccc(C)nc21`, for which the solubility (kinetic) was determined as 0.0029 mg/mL (≈ 8.55 µM).
In turn, `COc1ccc(CNC(=O)c2cccnc2)cc1` registered a solubility (kinetic) above 0.0363 mg/mL.
In turn, `Cc1ccccc1-c1nc(-c2ccc(Br)o2)no1` registered a kinetic solubility of 0.001 mg/mL (≈ 3.28 µM).
To `CCOc1ccc(CNc2ncc(-c3ccccc3)n2C)cc1` belongs 0.026 mg/mL (≈ 84.6 µM); to `Cc1ccc(NS(=O)(=O)c2ccc3c(c2)N(C)CCO3)cc1`, 0.0361 mg/mL (≈ 113 µM).
